Results: ChEMBL document CHEMBL4321867, “Optimization of LpxC Inhibitor Lead Compounds Focusing on Efficacy and Formulation for High Dose Intravenous Administration” (J Med Chem, 2020)
Values after ≈ are worked out from the molar mass of the structure shown.

How the values were obtained:
[1] = system: Klebsiella oxytoca; assay: microbe, parasite or virus in culture
[2] = system: Proteus mirabilis; assay: microbe, parasite or virus in culture
[3] = system: Citrobacter freundii; assay: microbe, parasite or virus in culture
[4] = system: Stenotrophomonas maltophilia; assay: microbe, parasite or virus in culture
[5] = system: Escherichia coli; assay: microbe, parasite or virus in culture
[6] = system: Acinetobacter baumannii; assay: microbe, parasite or virus in culture
[7] = system: Klebsiella aerogenes; assay: microbe, parasite or virus in culture
[8] = system: Haemophilus influenzae; assay: microbe, parasite or virus in culture
[9] = system: Pseudomonas aeruginosa; assay: microbe, parasite or virus in culture
[10] = system: Burkholderia cepacia; assay: microbe, parasite or virus in culture
[11] = system: Klebsiella pneumoniae; assay: microbe, parasite or virus in culture
[12] = system: Serratia marcescens; assay: microbe, parasite or virus in culture
[13] = system: Enterobacter cloacae; assay: microbe, parasite or virus in culture
[14] = system: Moraxella catarrhalis; assay: microbe, parasite or virus in culture
[15] = system: Morganella morganii; assay: microbe, parasite or virus in culture
[16] = system: Escherichia coli; assay: microbe, parasite or virus in culture; details: ATCC 25922
[17] = in vitro; details: human, hepatocytes
[18] = in vitro; details: rat, hepatocytes
[19] = physchem; details: n-octanol/phosphate buffer, pH 7.4
[20] = physchem
[21] = in vivo; details: mouse, sc, 150 mg/kg
[22] = in vitro; details: human, liver microsomes
[23] = in vivo; details: Wistar, rat, iv, 10 mg/kg
[24] = system: Pseudomonas aeruginosa; assay: microbe, parasite or virus in culture; details: ATCC 27853
[25] = system: Klebsiella pneumoniae; assay: microbe, parasite or virus in culture; details: T6474
[26] = system: T1, UDP-3-O-acyl-N-acetylglucosamine deacetylase (Pseudomonas aeruginosa (strain ATCC 15692 / PAO1 / 1C / PRS 101 / LMG12228)), P47205 [C40S]; details: 25 uM
T1 sequence (whole entry): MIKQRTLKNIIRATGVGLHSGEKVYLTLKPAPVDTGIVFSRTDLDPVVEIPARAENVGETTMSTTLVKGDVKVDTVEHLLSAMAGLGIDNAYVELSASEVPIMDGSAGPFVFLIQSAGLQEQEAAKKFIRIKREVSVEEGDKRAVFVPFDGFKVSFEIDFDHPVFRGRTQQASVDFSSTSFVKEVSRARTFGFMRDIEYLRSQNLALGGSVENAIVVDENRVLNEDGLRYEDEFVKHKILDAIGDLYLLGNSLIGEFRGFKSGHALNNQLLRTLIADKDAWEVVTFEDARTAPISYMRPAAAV

[27] = system: T2, UDP-3-O-acyl-N-acetylglucosamine deacetylase (Escherichia coli K-12), P0A725 [C125S]; details: 25 uM
T2 sequence (whole entry): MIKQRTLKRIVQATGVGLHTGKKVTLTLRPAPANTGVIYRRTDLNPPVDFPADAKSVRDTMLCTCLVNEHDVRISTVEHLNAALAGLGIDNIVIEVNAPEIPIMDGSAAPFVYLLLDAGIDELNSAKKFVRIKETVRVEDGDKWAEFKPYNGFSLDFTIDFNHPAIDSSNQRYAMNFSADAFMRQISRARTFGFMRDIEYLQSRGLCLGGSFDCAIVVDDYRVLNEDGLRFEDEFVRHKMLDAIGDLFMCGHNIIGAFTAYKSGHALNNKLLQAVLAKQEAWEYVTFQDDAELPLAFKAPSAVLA

[28] = in vitro; details: rat, plasma
[29] = in vitro; details: rat, liver microsomes

SMILES	MIC90 [1] [µg/mL]	MIC90 [2] [µg/mL]	MIC90 [3] [µg/mL]	MIC90 [4] [µg/mL]	MIC90 [5] [µg/mL]	MIC90 [6] [µg/mL]	MIC90 [7] [µg/mL]	MIC90 [8] [µg/mL]	MIC90 [9] [µg/mL]	MIC90 [10] [µg/mL]	MIC90 [11] [µg/mL]	MIC90 [12] [µg/mL]	MIC90 [13] [µg/mL]	MIC90 [14] [µg/mL]	MIC90 [15] [µg/mL]	also measured
C[C@@H](O)[C@H]1C(=O)N2C(C(=O)O)=C(SCCNC=N)C[C@H]12 [IMIPENEM ANHYDROUS]	0.5 (≈ 1.67 µM)	4 (≈ 13.4 µM)	1 (≈ 3.34 µM)	> 16	0.25 (≈ 0.835 µM)	> 16	2 (≈ 6.68 µM)	0.5 (≈ 1.67 µM)	> 16	> 16	> 16	1 (≈ 3.34 µM)	1 (≈ 3.34 µM)	0.06 (≈ 0.2 µM)	16 (≈ 53.4 µM)	
O=C(O)c1cn(C2CC2)c2cc(N3CCNCC3)c(F)cc2c1=O [CIPROFLOXACIN]	≤ 0.016	0.125 (≈ 0.377 µM)	0.125 (≈ 0.377 µM)	8 (≈ 24.1 µM)	> 8	> 8	0.03 (≈ 0.0905 µM)	≤ 0.016	> 8	8 (≈ 24.1 µM)	> 8	0.25 (≈ 0.754 µM)		1 (≈ 3.02 µM)	≤ 0.016	
CN(C)c1cc(NC(=O)CNC(C)(C)C)c(O)c2c1C[C@H]1C[C@H]3[C@H](N(C)C)C(O)=C(C(N)=O)C(=O)[C@@]3(O)C(O)=C1C2=O [TIGECYCLINE]	0.5 (≈ 0.854 µM)	4 (≈ 6.83 µM)	1 (≈ 1.71 µM)	4 (≈ 6.83 µM)	1 (≈ 1.71 µM)	16 (≈ 27.3 µM)	1 (≈ 1.71 µM)	0.25 (≈ 0.427 µM)	> 16	> 16	4 (≈ 6.83 µM)	2 (≈ 3.41 µM)	4 (≈ 6.83 µM)	0.5 (≈ 0.854 µM)	8 (≈ 13.7 µM)	
C[C@@](CCN1Cc2cc(C#CC#CC3(N)CC3)cn2C1=O)(C(=O)NO)S(C)(=O)=O																MIC [16]: 0.25 µg/mL (≈ 0.597 µM); hepatocyte CLint at 1 µM [17]: < 2 µL/min/1e6 cells; hepatocyte CLint at 1 µM [18]: 17 µL/min/1e6 cells; logD [19]: 0.7; pKa [20]: 6.5; AUC(0-t) at 24 h [21]: 44700 ng·h/mL; microsomal CLint at 1 µM [22]: < 10 µL/min/mg; clearance at 24 h [23]: 29 mL/min/kg; MIC [24]: 0.5 µg/mL (≈ 1.19 µM); MIC [25]: 0.25 µg/mL (≈ 0.597 µM); deltaTm [26]: 11.6 K; deltaTm [27]: 10 K; fraction unbound at 1 µM [28]: 0.111; microsomal CLint at 1 µM [29]: 14 µL/min/mg
